Where two headings read alike, the source gives them in different places.

Results on 23 molecules are retold here after US20210253562A1, “ACYLSUFONAMIDE COMPOUNDS USEFUL AS EP3 RECEPTOR ANTAGONISTS” (Janssen Pharmaceutica NV, priority 2018, published 2021).

Test [1] has as its target T1, EP3 membrane (EP3 receptor) (Homo sapiens, UniProt P43115).
T1 construct: purchased Millipore HTS092M
T1 sequence (P43115 1-390): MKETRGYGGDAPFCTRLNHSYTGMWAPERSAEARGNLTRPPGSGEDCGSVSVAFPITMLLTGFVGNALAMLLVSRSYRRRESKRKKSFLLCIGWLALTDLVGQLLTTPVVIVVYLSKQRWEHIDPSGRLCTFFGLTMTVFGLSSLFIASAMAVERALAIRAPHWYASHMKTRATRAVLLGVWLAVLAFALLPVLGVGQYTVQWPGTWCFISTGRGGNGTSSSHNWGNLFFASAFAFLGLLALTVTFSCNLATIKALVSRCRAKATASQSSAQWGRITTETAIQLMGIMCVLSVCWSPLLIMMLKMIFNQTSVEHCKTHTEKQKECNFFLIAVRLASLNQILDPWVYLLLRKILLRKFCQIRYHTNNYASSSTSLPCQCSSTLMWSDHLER
The test is described as follows: [3H]-PGE2 binding; EP3 competition binding (SPA). The method in brief:
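Ki derived from one-site nonlinear regression of scintillation proximity counts after 2 h room-temperature equilibration. Serially diluted (1:3) compounds competed against [3H]-PGE2 (2 nM) for EP3 receptor membranes (2 μg/well) in pH 7.4 Tris buffer with 10 mM MgCl2, 1 mM EDTA, 0.1% DMSO.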

The target in test [2] is T2, CHO cells over-expressing the EP3 receptor (Homo sapiens, UniProt P43115).
T2 construct: expressed in transfected cells; host or cells: CHO cells
T2 sequence (P43115 1-390): T1 sequence (P43115 1-390)
The test is described as follows: CHO cell cAMP assay; EP3 cAMP antagonist dose response (sulprostone reference), HTRF. The class given is cell-based. Conditions: sulprostone 700 nM (EC80) and FSK 2 μM (EC70); read-out: CHO_cAMP IC50. The essentials: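 EP3-overexpressing CHO cells pre-incubated with test compound, then stimulated 30 min at 37 °C with FSK (2 μM, EC70) plus sulprostone (700 nM, EC80); antagonism seen as restored cAMP. cAMP measured by HTRF 665/615 ratio, converted via on-plate standard curve. IC50 from Hill fit of 11-point dosing.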
(In general: Changes in cAMP serve as a functional read-out for many G protein-coupled receptors.)

In general, Ki refers to the equilibrium dissociation constant of an inhibitor or competing ligand from its target. Low readings indicate higher affinity, high ones lower affinity. By IC50 is commonly meant the midpoint of a concentration-inhibition curve. For `O=C(C/C=C1\CCCc2cnn(Cc3ccc(Cl)cc3Cl)c21)NS(=O)(=O)c1cc(Cl)c(Cl)s1` [Compound #3, (E)-3-(1-(2,4-dichlorobenzyl)-1,4,5,6-tetrahydro-7H-indazol-7-ylidene)-N-((4,5-dichlorothiophen-2-yl)sulfonyl)propanamide], in test [1], the Ki turned out to be 3 nM. The IC50 in test [2] amounted to 33 nM.

Molecule `O=C(NS(=O)(=O)c1ccc(Cl)cc1)OC/C(F)=C1/COCc2cnn(-c3cccc(C(F)(F)F)c3)c21` [compound 108] registered a Ki in test [1] of over 10000 nM. For the same molecule, the IC50 in test [2] is over 20000 nM.

`O=C(NC/C=C1\CCCc2cnn(Cc3ccc(Cl)cc3Cl)c21)NS(=O)(=O)c1cc(F)cc(F)c1` [Compound #9, (E)-N-((2-(1-(2,4-dichlorobenzyl)-1,4,5,6-tetrahydro-7H-indazol-7-ylidene)ethyl)carbamoyl)-3,5-difluorobenzenesulfonamide] registered a Ki in test [1] of 6 nM. Moreover, in test [2], the IC50 was determined as 14 nM.

`O=C(NC/C(F)=C1\CCCc2onc(Cc3ccc(Cl)cc3Cl)c21)NS(=O)(=O)c1cc(Cl)c(Cl)s1` [Compound #127, (Z)-4,5-dichloro-N-((2-(3-(2,4-dichlorobenzyl)-6,7-dihydrobenzo[d]isoxazol-4(5H)-ylidene)-2-fluoroethyl)carbamoyl)thiophene-2-sulfonamide]: in test [1], the Ki stood at 1 nM. The IC50 in test [2] was found to be 8 nM.

As for `O=C(NC/C=C1\CCCc2cnn(-c3cccc(-c4ccc(F)cc4)c3)c21)NS(=O)(=O)c1cc(Cl)c(Cl)s1` [Compound #76, (E)-4,5-dichloro-N-((2-(1-(4′-fluoro-[1,1′-biphenyl]-3-yl)-1,4,5,6-tetrahydro-7H-indazol-7-ylidene)ethyl)carbamoyl)thiophene-2-sulfonamide], the affinity in test [1], expressed as Ki, was 2 nM. In test [2], the IC50 came to 9 nM.

On to `CN(C/C=C1\CCCc2cnn(Cc3ccc(Cl)cc3Cl)c21)C(=O)NS(=O)(=O)c1ccc(Cl)cc1` [Compound #33, (E)-4-chloro-N-((2-(1-(2,4-dichlorobenzyl)-1,4,5,6-tetrahydro-7H-indazol-7-ylidene)ethyl)(methyl)carbamoyl)benzenesulfonamide], for which the Ki in test [1] worked out at 6 nM. In test [2], the IC50 stood at 9 nM.

`O=C(CC/C=C1\CCCc2cnn(Cc3ccc(Cl)cc3Cl)c21)NS(=O)(=O)c1cc2ccccc2s1` [Compound #31, (E)-N-(benzo[b]thiophen-2-ylsulfonyl)-4-(1-(2,4-dichlorobenzyl)-1,4,5,6-tetrahydro-7H-indazol-7-ylidene)butanamide]: in test [1], the affinity corresponds to a Ki of 7 nM. In test [2], the IC50 amounted to 13 nM.

With `O=C(NC/C(F)=C1/COCc2cnn(Cc3ccc(Cl)cc3Cl)c21)NS(=O)(=O)c1cc(Cl)c(Cl)s1` [Compound #60, (Z)-4,5-dichloro-N-((2-(1-(2,4-dichlorobenzyl)-1,4-dihydropyrano[4,3-c]pyrazol-7(6H)-ylidene)-2-fluoroethyl)carbamoyl)thiophene-2-sulfonamide], the Ki in test [1] stood at 7 nM. For the same molecule, the IC50 in test [2] was 4 nM.

For the molecule `CN(C/C(F)=C1\CCCc2cnn(Cc3ccc(Cl)cc3Cl)c21)C(=O)NS(=O)(=O)c1cc(Cl)c(Cl)s1` [Compound #59, (Z)-4,5-dichloro-N-((2-(1-(2,4-dichlorobenzyl)-1,4,5,6-tetrahydro-7H-indazol-7-ylidene)-2-fluoroethyl)(methyl)carbamoyl)thiophene-2-sulfonamide], the Ki in test [1] came to 5 nM. In test [2], the IC50 was 12 nM.

In the case of `O=C(NC/C=C1\CCCc2cnn(C3CCN(c4ccc(F)cc4)CC3)c21)NS(=O)(=O)c1ccc(Cl)cc1` [Compound #122, (E)-4-chloro-N-((2-(1-(1-(4-fluorophenyl)piperidin-4-yl)-1,4,5,6-tetrahydro-7H-indazol-7-ylidene)ethyl)carbamoyl)benzenesulfonamide], in test [1], the Ki was determined as 6 nM. The IC50 in test [2] came out at 45 nM.

`O=C(NS(=O)(=O)c1ccc(Cl)cc1)OC/C=C1/c2c(cnn2Cc2ccc(Cl)cc2Cl)CCC1(F)F` [Compound #82, (Z)-2-(1-(2,4-dichlorobenzyl)-6,6-difluoro-1,4,5,6-tetrahydro-7H-indazol-7-ylidene)ethyl ((4-chlorophenyl)sulfonyl)carbamate] registered a Ki in test [1] of 106 nM. Further, the 50% inhibitory concentration (IC50) in test [2] amounted to 2600 nM.

`O=C(NC/C(F)=C1\CCCc2cnn(-c3ccc4ccccc4c3)c21)NS(=O)(=O)c1ccc2c(c1)OCCO2` [Compound #114, (Z)—N-((2-fluoro-2-(1-(naphthalen-2-yl)-1,4,5,6-tetrahydro-7H-indazol-7-ylidene)ethyl)carbamoyl)-2,3-dihydrobenzo[b][1,4]dioxine-6-sulfonamide] registered a Ki in test [1] of 14500 nM. For the same molecule, in test [2], the IC50 was over 20000 nM.

In test [1], `COc1ccc(F)cc1S(=O)(=O)NC(=O)NC/C(F)=C1/CCCc2cnn(-c3ccc4ccccc4c3)c21` [Compound #112, (E)-5-fluoro-N-((2-fluoro-2-(1-(naphthalen-2-yl)-1,4,5,6-tetrahydro-7H-indazol-7-ylidene)ethyl)carbamoyl)-2-methoxybenzenesulfonamide] came in with a Ki of over 10000 nM. Also, in test [2], the IC50 was over 20000 nM.

Regarding `COc1ccc(F)cc1S(=O)(=O)NC(=O)NC/C(F)=C1\CCCc2cnn(Cc3ccc(Cl)cc3Cl)c21` [Compound #90, (Z)—N-((2-(1-(2,4-dichlorobenzyl)-1,4,5,6-tetrahydro-7H-indazol-7-ylidene)-2-fluoroethyl)carbamoyl)-5-fluoro-2-methoxybenzenesulfonamide], the Ki in test [1] came out at 37 nM. In addition, in test [2], the IC50 stood at 272 nM.

The molecule `Cc1ncc(S(=O)(=O)NC(=O)NC/C=C2\CCCc3cnn(Cc4ccc(Cl)cc4Cl)c32)s1` [Compound #139, (E)-N-((2-(1-(2,4-dichlorobenzyl)-1,4,5,6-tetrahydro-7H-indazol-7-ylidene)ethyl)carbamoyl)-2-methylthiazole-5-sulfonamide] showed a Ki in test [1] of 7 nM. Also, the IC50 in test [2] stood at 9 nM.

On to `COc1ccccc1S(=O)(=O)NC(=O)NC/C=C1\CCCc2cnn(Cc3ccc(Cl)cc3Cl)c21` [Compound #39, (E)-N-((2-(1-(2,4-dichlorobenzyl)-1,4,5,6-tetrahydro-7H-indazol-7-ylidene)ethyl)carbamoyl)-2-methoxybenzenesulfonamide], for which the Ki in test [1] came out at 62 nM. Also, the IC50 in test [2] was found to be 114 nM.

In test [1], `O=C(NC/C=C1\CC(F)(F)Cc2cnn(Cc3ccc(Cl)cc3Cl)c21)NS(=O)(=O)c1ccc(Cl)cc1` [Compound #48, (E)-4-chloro-N-((2-(1-(2,4-dichlorobenzyl)-5,5-difluoro-1,4,5,6-tetrahydro-7H-indazol-7-ylidene)ethyl)carbamoyl)benzenesulfonamide] gave a Ki of 5 nM. The concentration for half-maximal inhibition (IC50) in test [2] was 14 nM.

`O=C(NC/C=C1\CCCc2cnn(Cc3cnc(-c4ccccc4)nc3)c21)NS(=O)(=O)c1cc(Cl)c(Cl)s1` [Compound #138, (E)-4,5-dichloro-N-((2-(1-((2-phenylpyrimidin-5-yl)methyl)-1,4,5,6-tetrahydro-7H-indazol-7-ylidene)ethyl)carbamoyl)thiophene-2-sulfonamide] registered a Ki in test [1] (unit nM) of 0.4 nM. Moreover, the IC50 in test [2] was 6 nM.

In turn, `O=C(CC/C=C1\CCCc2cnn(-c3cccc(-c4ccccc4)c3)c21)NS(=O)(=O)c1cc(Cl)c(Cl)s1` [Compound #52, (E)-4-(1-([1,1′-biphenyl]-3-yl)-1,4,5,6-tetrahydro-7H-indazol-7-ylidene)-N-((4,5-dichlorothiophen-2-yl)sulfonyl)butanamide] returned a Ki in test [1] of 1 nM. The IC50 in test [2] came to 3 nM.

`O=C(C/C(F)=C1\CCCc2cnn(Cc3ccc(Cl)cc3Cl)c21)NS(=O)(=O)c1cc(Cl)c(Cl)s1` [Compound #93, (Z)-3-(1-(2,4-dichlorobenzyl)-1,4,5,6-tetrahydro-7H-indazol-7-ylidene)-N-((4,5-dichlorothiophen-2-yl)sulfonyl)-3-fluoropropanamide]: the Ki in test [1] was determined as 6 nM. The IC50 in test [2] is 17 nM.

For `O=C(NC/C=C1\CCCc2cnn(C3CCN(c4ccccn4)CC3)c21)NS(=O)(=O)c1cc(Cl)c(Cl)s1` [Compound #140, (E)-4,5-dichloro-N-((2-(1-(1-(pyridin-2-yl)piperidin-4-yl)-1,4,5,6-tetrahydro-7H-indazol-7-ylidene)ethyl)carbamoyl)thiophene-2-sulfonamide], the affinity in test [1] corresponds to a Ki of 8 nM. In test [2], the IC50 was 12 nM.

On to `O=C(NC/C(F)=C1\COCc2cnn(Cc3ccc(Cl)cc3Cl)c21)NS(=O)(=O)c1cc(Cl)c(Cl)s1` [Compound #54, (E)-4,5-dichloro-N-((2-(1-(2,4-dichlorobenzyl)-1,4-dihydropyrano[4,3-c]pyrazol-7(6H)-ylidene)-2-fluoroethyl)carbamoyl)thiophene-2-sulfonamide], for which the Ki in test [1] was found to be 3 nM. Moreover, in test [2], the IC50 is 24 nM.

With `COc1ccccc1S(=O)(=O)NC(=O)NC/C=C1\COCc2cnn(Cc3ccc(Cl)cc3Cl)c21` [Compound #58, (Z)—N-((2-(1-(2,4-dichlorobenzyl)-1,4-dihydropyrano[4,3-c]pyrazol-7(6H)-ylidene)ethyl)carbamoyl)-2-methoxybenzenesulfonamide], the Ki in test [1] worked out at 110 nM. In addition, in test [2], the IC50 was 1300 nM.
